Reference: US4476120A, “Thiolic derivatives of erythromycin having therapeutic activity, and pharmaceutical compositions containing them” (Sigma Tau Indistrie Farmaceutiche Riunites, p.A, priority 1982, dated 1984)
In brackets after ≈: the same amount, converted by molar mass.

Experiments:
Staph. aureus SS 09 = assay type: cell-based; conditions: Brain Heart Infusion, estolate and RV11-RV15 previously hydrolized, unit assumed
E. coli SS 07 = assay type: cell-based; conditions: Brain Heart Infusion, estolate and RV11-RV15 previously hydrolized, unit assumed
B. subtilis ATCC 6633 = assay type: cell-based; conditions: Brain Heart Infusion, estolate and RV11-RV15 previously hydrolized, unit assumed
Strept. faecalis SS 19 = assay type: cell-based; conditions: Brain Heart Infusion, estolate and RV11-RV15 previously hydrolized, unit assumed
Citrobacter SS 09 = assay type: cell-based; conditions: Brain Heart Infusion, estolate and RV11-RV15 previously hydrolized, unit assumed
C. albicans SS 04 = assay type: cell-based; conditions: Brain Heart Infusion, estolate and RV11-RV15 previously hydrolized, unit assumed
Staph. aureus SS 07 [1] = test: Experimental infection induced by Staph. aureus SS 07; assay type: in vivo, Swiss white mice; conditions: Staphylococcus aureus, SS07, in Mus musculus, po, 168 h, os; Staph. aureus SS 07; mg/kg of erythromycin; survival after 7 days; read-out: ED50 (reliability limits)
Method: (§1) Swiss white mice of 20 g body weight were used, infected by parenteral administration of lethal amounts of pathogenic […] of Staph. aureus SS 07 and D. pneumoniae SS 23.
(§2) The antibiotics were administered at the time of injecting the infecting germ and 6 and 24 hours later. On the basis of the survival after 7 days, the ED50 values were determined, as reported in the following table II and III, wherein the reliability limits are indicated in brackets.

S. lutea ATCC 9341 = assay type: cell-based; conditions: Brain Heart Infusion, estolate and RV11-RV15 previously hydrolized, unit assumed
N. meningitidis SS 04 = assay type: cell-based; conditions: Brain Heart Infusion, estolate and RV11-RV15 previously hydrolized, unit assumed
E. aerogenes SS 011 = assay type: cell-based; conditions: Brain Heart Infusion, estolate and RV11-RV15 previously hydrolized, unit assumed
Br. melitensis SS 19 = assay type: cell-based; conditions: unit assumed
Staph. aureus SS 07 [2] = assay type: cell-based; conditions: Brain Heart Infusion, estolate and RV11-RV15 previously hydrolized, unit assumed
D. pneumoniae SS 23 [3] = assay type: cell-based; conditions: Brain Heart Infusion, estolate and RV11-RV15 previously hydrolized, unit assumed
[4] = Hematic levels in the rat (absorption by oral route); conditions: 100 mg/kg as erythromycin, average, 100 mg/kg
B. anthranis SS 08 = assay type: cell-based; conditions: Brain Heart Infusion, estolate and RV11-RV15 previously hydrolized, unit assumed
Staph. albus SS 04 = assay type: cell-based; conditions: Brain Heart Infusion, estolate and RV11-RV15 previously hydrolized, unit assumed
D. pneumoniae SS 23 [5] = test: Experimental infection induced by D. pneumoniae SS 23; assay type: in vivo, Swiss white mice; conditions: Streptococcus pneumoniae, SS23, in Mus musculus, po, 168 h, os; D. pneumoniae SS 23; mg/kg of erythromycin; survival after 7 days; read-out: ED50 (reliability limits)
Method: as §1, §2

H. pertussis SS 03 = assay type: cell-based; conditions: Brain Heart Infusion, estolate and RV11-RV15 previously hydrolized, unit assumed
Acute toxicity = assay type: in vivo; conditions: mouse, in vivo, po; os; mortality 10 days after treatment; mice; read-out: LD50 (reliability limits)
Method: The acute toxicity was assessed in Swiss white mice by oral and intravenous route. The LD50 values have been calculated by the methods of Probits, starting from the mortality recorded 10 days after the treatment.

E. cloacae SS 07 = assay type: cell-based; conditions: Brain Heart Infusion, estolate and RV11-RV15 previously hydrolized, unit assumed
S. infantis SS 08 = assay type: cell-based; conditions: Brain Heart Infusion, estolate and RV11-RV15 previously hydrolized, unit assumed
Sr. marcescens SS 03 = assay type: cell-based; conditions: Brain Heart Infusion, estolate and RV11-RV15 previously hydrolized, unit assumed
B. anthranis SS 09 = assay type: cell-based; conditions: B. anthranis SS 09 (14 bis); Brain Heart Infusion; estolate and RV11-RV15 previously hydrolized; unit assumed
E. coli SS 04 = assay type: cell-based; conditions: Brain Heart Infusion, estolate and RV11-RV15 previously hydrolized, unit assumed
Staph. aureus SS 08 = assay type: cell-based; conditions: Brain Heart Infusion, estolate and RV11-RV15 previously hydrolized, unit assumed
N. gonorreae SS 27 = assay type: cell-based; conditions: Brain Heart Infusion, estolate and RV11-RV15 previously hydrolized, unit assumed
Pr. vulgaris SS 10 = assay type: cell-based; conditions: Brain Heart Infusion, estolate and RV11-RV15 previously hydrolized, unit assumed
[6] = test system: Strept. haemolyticus SS 18; assay type: cell-based; conditions: Brain Heart Infusion, estolate and RV11-RV15 previously hydrolized, unit assumed
E. coli SS 05 = assay type: cell-based; conditions: Brain Heart Infusion, estolate and RV11-RV15 previously hydrolized, unit assumed
S. heidelberg SS 18 = assay type: cell-based; conditions: Brain Heart Infusion, estolate and RV11-RV15 previously hydrolized, unit assumed
Kl. aerogenes SS 71 = assay type: cell-based; conditions: Brain Heart Infusion, estolate and RV11-RV15 previously hydrolized, unit assumed
Staph. aureus SS 10 = assay type: cell-based; conditions: Brain Heart Infusion, estolate and RV11-RV15 previously hydrolized, unit assumed
Ps. aeruginosa SS 10 = assay type: cell-based; conditions: Brain Heart Infusion, estolate and RV11-RV15 previously hydrolized, unit assumed
C. diphtheriae SS 19 = assay type: cell-based; conditions: Brain Heart Infusion, estolate and RV11-RV15 previously hydrolized, unit assumed
Citrobacter SS 05 = assay type: cell-based; conditions: Brain Heart Infusion, estolate and RV11-RV15 previously hydrolized, unit assumed
Pr. mirabilis SS 09 = assay type: cell-based; conditions: Brain Heart Infusion, estolate and RV11-RV15 previously hydrolized, unit assumed
Kl. pneumoniae SS 04 = assay type: cell-based; conditions: Brain Heart Infusion, estolate and RV11-RV15 previously hydrolized, unit assumed
Text: (§3) In the following table I the MIC/ml values are indicated corresponding to the lowest concentration capable of inducing a complete inhibition of the bacterial development.

H. tubercolosis SS 03 = assay type: cell-based; conditions: Brain Heart Infusion, estolate and RV11-RV15 previously hydrolized, unit assumed
Text: as §3

B. subtilis SS 127 = assay type: cell-based; conditions: Brain Heart Infusion, estolate and RV11-RV15 previously hydrolized, unit assumed
E. coli SS 06 = assay type: cell-based; conditions: Brain Heart Infusion, estolate and RV11-RV15 previously hydrolized, unit assumed
B. cereus ATCC 11778 = assay type: cell-based; conditions: Brain Heart Infusion, estolate and RV11-RV15 previously hydrolized, unit assumed
Br. abortus SS 7 = assay type: cell-based; conditions: Brain Heart Infusion, estolate and RV11-RV15 previously hydrolized, unit assumed
Staph. albus SS 03 = assay type: cell-based; conditions: Brain Heart Infusion, estolate and RV11-RV15 previously hydrolized, unit assumed
Cl. tetani SS 17 = assay type: cell-based; conditions: Brain Heart Infusion, estolate and RV11-RV15 previously hydrolized, unit assumed
H. influentiae SS 02 = assay type: cell-based; conditions: Brain Heart Infusion, estolate and RV11-RV15 previously hydrolized, unit assumed
[7] = test system: Strept. haemolyticus SS 17; assay type: cell-based; conditions: Brain Heart Infusion, estolate and RV11-RV15 previously hydrolized, unit assumed

## CC[C@H]1OC(=O)[C@H](C)[C@@H](O[C@H]2C[C@@](C)(OC)[C@@H](O)[C@H](C)O2)[C@H](C)[C@@H](O[C@@H]2O[C@H](C)C[C@H](N(C)C)[C@H]2O)[C@](C)(O)C[C@@H](C)C(=O)[C@H](C)[C@@H](O)[C@]1(C)O [erythromycin]
Staph. aureus SS 09
  MIC: 0.1 µg/mL (≈ 0.136 µM)
E. coli SS 07
  MIC: 50 µg/mL (≈ 68.1 µM)
B. subtilis ATCC 6633
  MIC: 0.025 µg/mL (≈ 0.0341 µM)
Strept. faecalis SS 19
  MIC: 0.1 µg/mL (≈ 0.136 µM)
Citrobacter SS 09
  MIC: > 200 µg/mL
C. albicans SS 04
  MIC: 100 µg/mL (≈ 136 µM)
Staph. aureus SS 07 [1]
  ED50: 2.09 mg/kg
S. lutea ATCC 9341
  MIC: 0.01 µg/mL (≈ 0.0136 µM)
N. meningitidis SS 04
  MIC: 0.8 µg/mL (≈ 1.09 µM)
E. aerogenes SS 011
  MIC: 100 µg/mL (≈ 136 µM)
Br. melitensis SS 19
  MIC: 3 µg/mL (≈ 4.09 µM)
Staph. aureus SS 07 [2]
  MIC: 0.025 µg/mL (≈ 0.0341 µM)
D. pneumoniae SS 23 [3]
  MIC: 0.05 µg/mL (≈ 0.0681 µM)
[4]; 2 hours, 120 min
  Hematic levels in the rat: 1.15 µg/mL
[4]; 6 hours, 360 min
  Hematic levels in the rat: 0.03 µg/mL
[4]; rat, blood, po, Hematic levels in the rat, 0.30 hours
  concentration at 0.3 h: 710 ng/mL
[4]; rat, blood, po, Hematic levels in the rat, 1 hour
  concentration at 1 h: 1030 ng/mL
[4]; rat, blood, po, Hematic levels in the rat, 3 hours
  concentration at 3 h: 1050 ng/mL
[4]; rat, blood, po, Hematic levels in the rat, 4 hours
  concentration at 4 h: 370 ng/mL
[4]; rat, blood, po, Hematic levels in the rat, 5 hours
  concentration at 5 h: 260 ng/mL
B. anthranis SS 08
  MIC: 0.4 µg/mL (≈ 0.545 µM)
Staph. albus SS 04
  MIC: 0.05 µg/mL (≈ 0.0681 µM)
D. pneumoniae SS 23 [5]
  ED50: 114 mg/kg
H. pertussis SS 03
  MIC: 0.4 µg/mL (≈ 0.545 µM)
Acute toxicity
  LD50 at 240 h: > 3000 mg/kg
E. cloacae SS 07
  MIC: > 200 µg/mL
S. infantis SS 08
  MIC: 100 µg/mL (≈ 136 µM)
Sr. marcescens SS 03
  MIC: 200 µg/mL (≈ 273 µM)
B. anthranis SS 09
  MIC: 0.4 µg/mL (≈ 0.545 µM)
E. coli SS 04
  MIC: 100 µg/mL (≈ 136 µM)
Staph. aureus SS 08
  MIC: 0.025 µg/mL (≈ 0.0341 µM)
N. gonorreae SS 27
  MIC: 0.8 µg/mL (≈ 1.09 µM)
Pr. vulgaris SS 10
  MIC: > 200 µg/mL
[6]
  MIC: 1.5 µg/mL (≈ 2.04 µM)
E. coli SS 05
  MIC: 50 µg/mL (≈ 68.1 µM)
S. heidelberg SS 18
  MIC: 100 µg/mL (≈ 136 µM)
Kl. aerogenes SS 71
  MIC: 50 µg/mL (≈ 68.1 µM)
Staph. aureus SS 10
  MIC: 0.1 µg/mL (≈ 0.136 µM)
Ps. aeruginosa SS 10
  MIC: 100 µg/mL (≈ 136 µM)
C. diphtheriae SS 19
  MIC: 0.01 µg/mL (≈ 0.0136 µM)
Citrobacter SS 05
  MIC: > 200 µg/mL
Pr. mirabilis SS 09
  MIC: > 200 µg/mL
Kl. pneumoniae SS 04
  MIC: 100 µg/mL (≈ 136 µM)
H. tubercolosis SS 03
  MIC: 50 µg/mL (≈ 68.1 µM)
B. subtilis SS 127
  MIC: 0.05 µg/mL (≈ 0.0681 µM)
E. coli SS 06
  MIC: 100 µg/mL (≈ 136 µM)
B. cereus ATCC 11778
  MIC: 0.4 µg/mL (≈ 0.545 µM)
Br. abortus SS 7
  MIC: 12 µg/mL (≈ 16.4 µM)
Staph. albus SS 03
  MIC: 0.05 µg/mL (≈ 0.0681 µM)
Cl. tetani SS 17
  MIC: 0.4 µg/mL (≈ 0.545 µM)
H. influentiae SS 02
  MIC: 1.5 µg/mL (≈ 2.04 µM)
[7]
  MIC: 3 µg/mL (≈ 4.09 µM)
